Measurements as given in patent US10178875B2, “Methods of modifying or imparting taste using organic compounds” (Givaudan, S.A., priority 2013, dated 2019).

Experiments:
Type in all cases: in vivo
[1] = test system: bench-top tasting panel; assay: Umami evaluation on salted potato chips (Example 19); settings: 1% salted potato chips; for umami strength ranking: 14 panelists
Protocol: (§1) Umami evaluations were done in dry noodle seasoning, chicken broth, retorted chicken broth, cheese sauce and salted potato chip applications. Each application was prepared using MSG, the experimental umami tastant and a blank which contained neither MSG nor the experimental umami tastant. Next, using a bench-top tasting panel (consisting of 7 to 14 panelists), panelists were asked to record the sensory attribute differences between the control (blank), the MSG application and the application containing the experimental umami tastant. These sensory attributes include umami, saltiness, bitterness, off-notes, mouth feel attribute, lingering attribute and flavor profile differences.
One percent salt was added to a standard unsalted potato chip.

[2] = test system: bench-top tasting panel; assay: Umami evaluation in noodle seasoning broth; settings: Example 1 0.0001% by weight; for umami strength ranking: MSG 0.1%, 11 panelists
Protocol: as §1, with “differences. [table] Turmeric was plated on salt and palm fat and blended well. Next, the remaining ingredients were added and mixed until well blended. A concentration of 1.5% of the resulting mixture in hot water generated the noodle seasoning broth. The following three samples were tasted and compared. [table]” for “differences.”

[3] = test system: panel of trained tasters; assay: Taste evaluation in water
Protocol: A one percent cut of each compound of Examples 1-13 was prepared first. The hydrochloride salts were cut directly into water, while the free base examples were cut into ethanol. Next, 100 ml of a 1 ppm, 10 ppm and 20 ppm solution were prepared. The 1 ppm standards were prepared by addition of 0.0126 ml (cut in ethanol) or 0.01 ml (cut in water) to an amber bottle followed by dilution to 100 g total sample weight using water. The 10 and 20 ppm solutions were prepared similarly, but using 0.126 ml ethanol/0.1 ml water or 0.252 ml ethanol/0.2 ml water of the 1% cuts respectively. Next, the samples were evaluated by a panel of trained tasters.

[4] = test system: bench-top tasting panel; assay: Umami evaluation in chicken broth; settings: Example 1 0.0002% by weight; for umami strength ranking: MSG 0.1%, 11 panelists
Protocol: as §1, with “differences. […] Turmeric was plated on salt and chicken fat and blended well. Next, the remaining ingredients were added and mixed until well blended. A concentration of 2.5% of the resulting mixture in hot water (82° C. (180° F.)) generated the noodle seasoning broth.” for “differences.”

[5] = test system: bench-top tasting panel; assay: Umami evaluation in retorted chicken broth (Example 17); settings: Example 1 0.0002% by weight
Protocol: Umami evaluations were done in dry noodle seasoning, chicken broth, retorted chicken broth, cheese sauce and salted potato chip applications. Each application was prepared using MSG, the experimental umami tastant and a blank which contained neither MSG nor the experimental umami tastant. Next, using a bench-top tasting panel (consisting of 7 to 14 panelists), panelists were asked to record the sensory attribute differences between the control (blank), the MSG application and the application containing the experimental umami tastant. These sensory attributes include umami, saltiness, bitterness, off-notes, mouth feel attribute, lingering attribute and flavor profile differences. The chicken broth generated in Example 16 was transferred to a can and sealed. Prior to sealing one batch was treated with the compound of Example 1 (0.0002% by weight) and the other batch was canned without the ingredient generating a blank control sample. After sealing the cans, they were heated to 121° C. (250° F.) (under pressure) for 25 minutes, cooled to room temperature and then stored in the refrigerator for two weeks. Prior to tasting, the cans were opened and reheated to 65.5° C. (150° F.).

[6] = test system: bench-top tasting panel; assay: Umami evaluation in cheese sauce; settings: Example 1 0.00025% by weight; for umami strength ranking: MSG 0.1%, 14 panelists
Protocol: as §1, with “differences. […] Annatto was plated on a mixture of salt, citric acid and lactic acid and blended well. Next, the remaining ingredients were added and mixed until well blended.” for “differences.”

[7] = test system: bench-top tasting panel; assay: Umami evaluation in retorted chicken broth (Example 20); settings: MSG 0.20%, Example 3 4 ppm, Example 13 3 ppm, Example 10 4 ppm, Example 9 3 ppm, 9 panelists
Protocol: as §1
The procedure for the preparation of the retorted chicken broth is the same as in example 16. Compounds from Examples 3, 9, 10 and 13 were spiked individually into the chicken broth generating six samples, as described below.

[8] = test system: bench-top tasting panel; assay: Umami evaluation on salted potato chips (Example 22); settings: 1% salted potato chips; MSG 0.2%, Example 3 10 ppm, Example 13 10 ppm, Example 10 6 ppm, Example 9 10 ppm; 9 panelists
Protocol: as §1
The potato chips were prepared as previously described in example 19 and spiked with compounds from Examples 3, 9, 10 and 13 as described below.

[9] = test system: bench-top tasting panel; assay: Bain marie (hot water bath) test with chicken broth; settings: hot water bath 150° F. for 4 hours, MSG 0.20%, Example 3 3 ppm, Example 13 2 ppm (table), Example 10 3 ppm, Example 9 2 ppm, 7 panelists
Protocol: as §1
Chicken broth was prepared as previously described in example 15. Compounds from Examples 3, 9, 10 and 13 were added to the chicken broth in the concentrations described below and placed in a hot water bath (150° F.) for 4 hours prior to taste evaluation.

[10] = MSG 0.2%, Example 1 3 ppm (0.0003% by weight)

Question: `c1ccc(SCCc2ccccn2)cc1` [Example 1, 2-(2-(PHENYLTHIO)ETHYL)PYRIDINE] was tested. Which umami strength ranking ([1]; Example 1 1 ppm (0.0001% by weight)) did it give?
Answer: The umami strength ranking was “MSG>3 ppm Example 1>1 ppm Example 1>Blank Salted Chips”.

Question: And the “attribute noted by some panelists” value ([1]; Example 1 containing samples (1 ppm and 3 ppm))?
Answer: The value was “peppery attribute”.

Question: What about the “Number of panelists who noted green pepper offnote” value (from here on “Number”) ([1]; Example 1 samples, of 14 panelists) of the same compound?
Answer: Its value is 2.

Question: What about the umami strength ranking [1, 10] of the same compound?
Answer: Its umami strength ranking is “MSG>3 ppm Example 1>1 ppm Example 1>Blank Salted Chips”.

Question: What about the “attribute noted by some panelists” value [2] of the same compound?
Answer: The value was “green pepper attribute”.

Question: And the “Number” value ([2]; of 11 panelists)?
Answer: The value was 2.

Question: What about the umami strength ranking [2] of the same compound?
Answer: Its umami strength ranking is “MSG>Example 1>Blank Noodle Seasoning”.

Question: What about the aroma ([3]; 1 ppm in water) of the same compound?
Answer: The aroma was “green”.

Question: And the taste ([3]; 1 ppm in water)?
Answer: The taste was “weak to moderate umami”.

Question: What about the aroma ([3]; 10 ppm in water) of the same compound?
Answer: Its aroma is “green”.

Question: What about the taste ([3]; 10 ppm in water) of the same compound?
Answer: The taste was “moderate umami, very weak: bitter, very weak”.

Question: And the aroma ([3]; 20 ppm in water)?
Answer: Its aroma is “Green, tomato, bell”.

Question: What about the taste ([3]; 20 ppm in water) of the same compound?
Answer: Its taste is “strong umami, very weak bitter, weak metallic”.

Question: And the “attribute noted by some panelists” value [4]?
Answer: Its value is “green pepper/chili off-note attribute”.

Question: What about the “Number” value ([4]; of 11 panelists) of the same compound?
Answer: Its value is 3.

Question: What about the umami strength ranking [4] of the same compound?
Answer: The umami strength ranking was “MSG>Example 1>Blank Chicken Broth”.

Question: What about the umami versus control ([5]; retorted chicken broth (121° C., 25 minutes, stored two weeks), 10 panelists) of the same compound?
Answer: Its umami versus control is “more umami than the control”.

Question: And the off-notes ([5]; retorted chicken broth)?
Answer: The off-notes was “pepper off-notes”.

Question: What about the “Number” value ([5]; retorted chicken broth, of 10 panelists) of the same compound?
Answer: Its value is 4.

Question: What about the “attribute noted by some panelists” value [6] of the same compound?
Answer: Its value is “green pepper attribute”.

Question: What about the “Number” value ([6]; of 14 panelists) of the same compound?
Answer: The value was 4.

Question: And the umami strength ranking [6]?
Answer: Its umami strength ranking is “MSG>Example 1>Blank Cheese Sauce”.

Question: With `N[C@@H](CCC(=O)O)C(=O)[O-].[Na+]` [MSG, monosodium glutamate, reference compound] as the compound, how does the umami strength ranking [1, 10] read?
Answer: The umami strength ranking was “MSG>3 ppm Example 1>1 ppm Example 1>Blank Salted Chips”.

Question: And the umami strength ranking [2]?
Answer: Its umami strength ranking is “MSG>Example 1>Blank Noodle Seasoning”.

Question: And the umami strength ranking [7]?
Answer: The umami strength ranking was “MSG>3 ppm example 9>3 ppm Example 13>4 ppm Example 3>Blank retorted chicken broth>4 ppm Example 10”.

Question: And the umami strength ranking [8]?
Answer: Its umami strength ranking is 10 ppm Example 3>10 ppm Example 9>MSG>10 ppm Example 13>blank>6 ppm Example 10.

Question: And the umami strength ranking [9]?
Answer: The umami strength ranking was “MSG>2 ppm example 9>3 ppm Example 10=4 ppm Example 13>Blank chicken broth>3 ppm Example 3”.

Question: And the umami strength ranking [4]?
Answer: The umami strength ranking was “MSG>Example 1>Blank Chicken Broth”.

Question: And the umami strength ranking [6]?
Answer: The umami strength ranking was “MSG>Example 1>Blank Cheese Sauce”.
